In patent publication US20150018384A1, “TREATMENT FOR HIGH CHOLESTEROL” (FibroGen, Inc., priority 2012, published 2015):
pIC50: −log10 of the molar value. Entries after “also recorded” stand apart in the source; their conditions may differ. Marks after values point to notes of the source that are not given here.

Tests used:
[1] = system: Cholesterol Biosynthesis Genes in the Mouse Liver; test: Microarray expression of cholesterol biosynthesis genes in mouse liver; format: in vivo; conditions: 90 mg/kg oral
Summary of the method: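 Mouse livers taken 4 h or 8 h post-treatment; RNA from paired animals pooled and hybridized to mouse 430A 2.0 arrays, GC-RMA processed, outlier arrays removed by PCA. Values are fold-change versus timepoint-matched vehicle controls from the same study; below 1.0 means reduced liver RNA.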

[2] = system: subjects with end stage renal disease (ESRD); test: ESRD subjects switched from epoetin alfa to Compound A or continued on epoetin alfa; format: in vivo, human; conditions: six weeks
Description: Mean total cholesterol change for the Compound A-treated subjects (all cohorts) was a decrease of 15 mg/dL compared to an increase of 18 mg/dL for the epoetin alfa treated subjects.

ApoE deficient mice = test: Cholesterol reduction and erythrogenesis in ApoE deficient mice, 4 weeks; format: in vivo, mouse; conditions: orally 2, 20, 60 or 100 mg/kg three times a week for 4 weeks, n=8/group
Description: Ten-week-old male apoE knockout mice (Jackson Laboratories, Bar Harbor, Me.) were fed a normal chow diet (0.02% cholesterol, 13.5% fat by weight; LabDiet). […] After 2 weeks of acclimatization, whole blood was collected for baseline measurement before administration of test reagents. […] The animals were sacrificed at end of study.
Total cholesterol and hemoglobin were measured weekly.

Sprague-Dawley rats = test: Single oral dose lipid panel in rats; format: in vivo, rat; conditions: fasted rats, single oral dose 60 mg/kg, after 24 hours
Description: Blood samples were collected at baseline (pre-dose) and approximately 24 hours following dosing to determine levels of cholesterol, HDL, LDL and the LDL/HDL ratio.

PHD3 = PHD3 (Homo sapiens, UniProt Q9H6Z9); test: HIF prolyl hydroxylase enzyme assay, PHD3; format: biochemical
PHD3, sequence (Q9H6Z9 whole entry): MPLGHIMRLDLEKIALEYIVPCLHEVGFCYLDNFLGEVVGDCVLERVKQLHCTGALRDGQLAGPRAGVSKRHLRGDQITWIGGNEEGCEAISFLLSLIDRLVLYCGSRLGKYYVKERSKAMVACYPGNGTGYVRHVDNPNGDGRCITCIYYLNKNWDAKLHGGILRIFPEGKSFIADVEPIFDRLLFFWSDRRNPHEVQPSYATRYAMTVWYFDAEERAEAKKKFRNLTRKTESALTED
Excerpt: Suitable assay methods are well known in the art.

DIO mice = test: High cholesterol mouse model, diet induced obesity (DIO) mice; conditions: another study, 60 mg/kg three times a week for two weeks, n=10/group, FIG. 24
Excerpt: Ten-week-old male apoE knockout mice (Jackson Laboratories, Bar Harbor, Me.) were fed a normal chow diet (0.02% cholesterol, 13.5% fat by weight; LabDiet). Ten-week-old male diet induced obese mice (DIO Mice, Jackson Laboratories, Bar Harbor, Me.) were fed a high fat diet (0.095% cholesterol, 60% fat by weight; ResearchDiets) starting at six-weeks-old. After 2 weeks of acclimatization, whole blood was collected for baseline measurement before administration of test reagents. All test reagents were administered orally by gavage needle three times a week for 2 weeks for the apoE mice, and three times a week for 4 weeks for the DIO mice. The animals were sacrificed at end of study. Whole blood was collected weekly in Heparin-tube by submandibular bleeding and isolated plasma was stored at −80° C. for measurement of total cholesterol.
DIO mice as described in Example 10 were used to test the effect of various compounds on cholesterol levels. Compound (60 mg/kg) or vehicle was administered to the mice (n=10/group) three times a week for four weeks. A statin compound (rosuvastatin) was also tested. Blood samples were collected at weekly and total cholesterol blood levels were tested.

[3] = system: subjects with chronic kidney disease (CKD); test: Phase 2b study in CKD subjects with anemia, Compound A vs placebo; format: in vivo, human
Description: The Hb target was 11 g/dL. The primary efficacy endpoint was the maximum change of Hb from baseline by Week 9.
Subjects were stratified by baseline (BL) total cholesterol (either >200 mg/dL or s 200 mg/dL) and analyzed for mean total cholesterol and LDL-C over the course of treatment.

[4] = orally three times a week for 8 weeks

Structure (SMILES): Cc1nc(C(=O)NCC(=O)O)c(O)c2ccc(Oc3ccccc3)cc12 [Compound A, [(4-Hydroxy-1-methyl-7-phenoxy-isoquinoline-3-carbonyl)-amino]-acetic acid]
- 3-hydroxy-3-methylglutaryl-Coenzyme A reductase (Hmgcr) RNA expression ([1]; 4 h): 0.45 fold-change
- 3-hydroxy-3-methylglutaryl-Coenzyme A synthase 1 (Hmgcs1) RNA expression ([1]; 4 h): 0.94 fold-change
- 7-dehydrocholesterol reductase (Dhcr7) RNA expression ([1]; 4 h): 1.03 fold-change
- NAD(P) dependent steroid dehydrogenase-like (Nsdhl) RNA expression ([1]; 4 h): 0.86 fold-change
- acetyl-Coenzyme A acetyltransferase 2 (Acat2) RNA expression ([1]; 4 h): 1.24 fold-change
- cytochrome P450, family 51 (Cyp51) RNA expression ([1]; 4 h): 0.69 fold-change
- farnesyl diphosphate farnesyl transferase 1 (Fdft1) RNA expression ([1]; 4 h): 0.68 fold-change
- farnesyl diphosphate synthetase (Fdps) RNA expression ([1]; 4 h): 0.87 fold-change
- isopentenyl-diphosphate delta isomerase (Idi1) RNA expression ([1]; 4 h): 0.73 fold-change
- lanosterol synthase (Lss) RNA expression ([1]; 4 h): 0.74 fold-change
- mevalonate (diphospho) decarboxylase (Mvd) RNA expression ([1]; 4 h): 0.68 fold-change
- mevalonate kinase (Mvk) RNA expression ([1]; 4 h): 1.00 fold-change
- phosphomevalonate kinase (Pmvk) RNA expression ([1]; 4 h): 1.27 fold-change
- squalene epoxidase (Sqle) RNA expression ([1]; 4 h): 0.61 fold-change
- sterol-C4-methyl oxidase-like (Sc4mol) RNA expression ([1]; 4 h): 0.63 fold-change
- sterol-C5-desaturase (fungal ERG3, delta-5-desaturase) homolog (S. cerevisae) (Sc5d) RNA expression ([1]; 4 h): 1.09 fold-change
- 3-hydroxy-3-methylglutaryl-Coenzyme A reductase (Hmgcr) RNA expression ([1]; 8 h): 0.43 fold-change
- 3-hydroxy-3-methylglutaryl-Coenzyme A synthase 1 (Hmgcs1) RNA expression ([1]; 8 h): 0.38 fold-change
- 7-dehydrocholesterol reductase (Dhcr7) RNA expression ([1]; 8 h): 0.61 fold-change
- NAD(P) dependent steroid dehydrogenase-like (Nsdhl) RNA expression ([1]; 8 h): 0.62 fold-change
- acetyl-Coenzyme A acetyltransferase 2 (Acat2) RNA expression ([1]; 8 h): 0.50 fold-change
- cytochrome P450, family 51 (Cyp51) RNA expression ([1]; 8 h): 0.45 fold-change
- farnesyl diphosphate farnesyl transferase 1 (Fdft1) RNA expression ([1]; 8 h): 0.43 fold-change
- farnesyl diphosphate synthetase (Fdps) RNA expression ([1]; 8 h): 0.36 fold-change
- isopentenyl-diphosphate delta isomerase (Idi1) RNA expression ([1]; 8 h): 0.51 fold-change
- lanosterol synthase (Lss) RNA expression ([1]; 8 h): 0.44 fold-change
- mevalonate (diphospho) decarboxylase (Mvd) RNA expression ([1]; 8 h): 0.37 fold-change
- mevalonate kinase (Mvk) RNA expression ([1]; 8 h): 0.53 fold-change
- phosphomevalonate kinase (Pmvk) RNA expression ([1]; 8 h): 0.63 fold-change
- squalene epoxidase (Sqle) RNA expression ([1]; 8 h): 0.43 fold-change
- sterol-C4-methyl oxidase-like (Sc4mol) RNA expression ([1]; 8 h): 0.46 fold-change
- sterol-C5-desaturase (fungal ERG3, delta-5-desaturase) homolog (S. cerevisae) (Sc5d) RNA expression ([1]; 8 h): 0.38 fold-change
- Total Cholesterol change ([2]; Mean (±SD), Compound A orally three times a week (n=74) or continued epoetin alfa (n=22)): −15 (38)** mg/dL
- Mean total cholesterol change, decrease ([2]; all cohorts): 15 mg/dL
- doses with statistically significant decreases in total cholesterol (% change) (ApoE deficient mice): 100 mg/kg
- hemoglobin compared to vehicle-treated (ApoE deficient mice): statistically significant increases in hemoglobin compared to vehicle-treated at the 60 mg/kg and 100 mg/kg doses; also recorded: significant increase in hemoglobin for the 60 mg/kg and 100 mg/kg doses
- total cholesterol (% change from baseline) compared to vehicle-treated (ApoE deficient mice): lower total cholesterol levels; also recorded: significant percent change in total cholesterol from baseline for the 100 mg/kg dose
- HDL decrease from baseline (Sprague-Dawley rats): 21 ± 7 mg/dL
- LDL decrease from baseline (Sprague-Dawley rats): 11 ± 3 mg/dL
- total cholesterol decrease from baseline (Sprague-Dawley rats): 26 ± 9 mg/dL
- pIC50 (PHD3): 5.70 to 6.70
- total cholesterol levels compared to vehicle treated (DIO mice): statistically significant decrease in total cholesterol levels
- Mean BL LDL-C ([3]; baseline (pre-treatment)): 102.60 mg/dL
- Mean BL Total Cholesterol ([3]; baseline (pre-treatment)): 166.84 mg/dL
- Cholesterol total % change [3, 4]: −18.5%
- Cholesterol total change [3, 4]: -33.9 mg/dL
- HDL-C [3, 4]: decreased
- LDL Cholesterol % change [3, 4]: −23.2%
- LDL cholesterol change [3, 4]: -27.9 mg/dL
- percentage of subjects who achieved Hb response (Hb increase of >1 g/dL from baseline Hb) [3, 4]: 86.4%
- mean total cholesterol over the course of treatment ([3]; subjects stratified by BL total cholesterol ≦200 (n=48) or >200 mg/dL (n=13), FIG. 14): reduction
- mean LDL-C over the course of treatment ([3]; subjects stratified by BL total cholesterol ≦200 (n=48) or >200 mg/dL (n=13), FIG. 15): reduction
